Seven compounds from PubChem BioAssay AID2474 (The Scripps Research Institute Molecular Screening Center, 2010) can be followed below.

Broadly, the IC50 is the point on the concentration scale where inhibition reaches its midpoint.

The target in the assay is Hepatitis C virus NS3 helicase. Nature of the assay: IC50 of HCV NS3 unwinding blockers – biochemical, fluorescence, dose response, late-stage follow-up (AID 2474). The following applies: recombinant NS3 helicase, fluorescence unwinding assay.
`Cc1cc(N2C(=O)C(O)=C(C(=O)c3ccc(C)o3)C2c2ccc(OCc3ccccc3)cc2)no1` (configuration not stated): the IC50 was 1470 nM. For the compound `CCOc1cccc(C2C(C(=O)c3ccc(C)o3)=C(O)C(=O)N2Cc2ccccc2)c1` (configuration not stated), the concentration for half-maximal inhibition (IC50) is 5290 nM. In the case of `CCCCCOc1ccc(C2C(C(=O)c3ccc(C)o3)=C(O)C(=O)N2c2cc(C)on2)cc1` (configuration not stated), the IC50 is 1810 nM. As for `COc1cc(C2C(C(=O)c3ccc(C)o3)=C(O)C(=O)N2c2cc(C)on2)ccc1OCc1ccccc1` (configuration not stated), the IC50 is 1630 nM. The result for `Cc1ccc(C(=O)C2=C(O)C(=O)N(Cc3ccco3)C2c2cccc(Cl)c2)o1` (configuration not stated) reads 6590 nM; that for `COc1cccc(-n2c(SCc3cc(=O)oc4cc(O)c(O)cc34)nc3ccccc3c2=O)c1`, 2880 nM; that for `COc1ccc(C=NNC(=O)c2cc(O)c(O)c(O)c2)cc1COc1ccc(C(=O)OCC(C)C)cc1`, 9370 nM.
